In brackets after ≈: the same amount, converted by molar mass.
Experiments:
[1] = system: Candida albicans; assay: Antifungal activity against Candida albicans ATCC 5314 assessed as reduction in fungal growth incubated for 24 hrs by serial dilution method; format: functional; details: ATCC 5314, 24 h
[2] = system: Staphylococcus aureus; assay: Antibacterial activity against methicillin-resistant Staphylococcus aureus ATCC 19494 assessed as reduction in bacterial growth incubated for 24 hrs by serial dilution method; format: functional; details: ATCC 19494, 24 h
[3] = system: Staphylococcus aureus; assay: Antibacterial activity against methicillin-resistant Staphylococcus aureus ATCC 19167 assessed as reduction in bacterial growth incubated for 24 hrs by serial dilution method; format: functional; details: ATCC 19167, 24 h
[4] = system: Staphylococcus aureus; assay: Antibacterial activity against Staphylococcus aureus ATCC 8325.4 assessed as reduction in bacterial growth incubated for 24 hrs by serial dilution method; format: functional; details: ATCC 8325.4, 24 h
[5] = system: Staphylococcus aureus; assay: Antibacterial activity against methicillin-resistant Staphylococcus aureus ATCC 18475 assessed as reduction in bacterial growth incubated for 24 hrs by serial dilution method; format: functional; details: ATCC 18475, 24 h
[6] = system: Staphylococcus aureus; assay: Antibacterial activity against methicillin-resistant Staphylococcus aureus ATCC 18908 assessed as reduction in bacterial growth incubated for 24 hrs by serial dilution method; format: functional; details: ATCC 18908, 24 h
[7] = system: Staphylococcus aureus; assay: Antibacterial activity against methicillin-resistant Staphylococcus aureus ATCC 18858 assessed as reduction in bacterial growth incubated for 24 hrs by serial dilution method; format: functional; details: ATCC 18858, 24 h
[8] = system: Staphylococcus aureus; assay: Antibacterial activity against methicillin-resistant Staphylococcus aureus ATCC 19952 assessed as reduction in bacterial growth incubated for 24 hrs by serial dilution method; format: functional; details: ATCC 19952, 24 h
[9] = system: Staphylococcus aureus; assay: Antibacterial activity against Staphylococcus aureus ATCC 25923 assessed as reduction in bacterial growth at MIC measured after 15 passages; format: functional
[10] = system: Staphylococcus aureus; assay: Antibacterial activity against methicillin-resistant Staphylococcus aureus ATCC 18878 assessed as reduction in bacterial growth incubated for 24 hrs by serial dilution method; format: functional; details: ATCC 18878, 24 h
[11] = system: Staphylococcus aureus; assay: Antibacterial activity against methicillin-resistant Staphylococcus aureus ATCC 19498 assessed as reduction in bacterial growth incubated for 24 hrs by serial dilution method; format: functional; details: ATCC 19498, 24 h
[12] = system: Staphylococcus aureus; assay: Antibacterial activity against methicillin-resistant Staphylococcus aureus ATCC 19900 assessed as reduction in bacterial growth incubated for 24 hrs by serial dilution method; format: functional; details: ATCC 19900, 24 h
[13] = system: Staphylococcus aureus; assay: Antibacterial activity against Staphylococcus aureus ATCC 29213 assessed as reduction in bacterial growth at MIC measured after 15 passages; format: functional
[14] = system: Staphylococcus aureus; assay: Antibacterial activity against methicillin-resistant Staphylococcus aureus ATCC 19102 assessed as reduction in bacterial growth incubated for 24 hrs by serial dilution method; format: functional; details: ATCC 19102, 24 h
[15] = system: Staphylococcus aureus; assay: Antibacterial activity against methicillin-resistant Staphylococcus aureus ATCC 19041 assessed as reduction in bacterial growth incubated for 24 hrs by serial dilution method; format: functional; details: ATCC 19041, 24 h
[16] = system: Staphylococcus aureus; assay: Antibacterial activity against Staphylococcus aureus ATCC 29213 assessed as reduction in bacterial growth incubated for 24 hrs by serial dilution method; format: functional; details: ATCC 29213, 24 h
[17] = system: Staphylococcus aureus; assay: Antibacterial activity against methicillin-resistant Staphylococcus aureus ATCC 19047 assessed as reduction in bacterial growth incubated for 24 hrs by serial dilution method; format: functional; details: ATCC 19047, 24 h
[18] = system: Staphylococcus aureus; assay: Antibacterial activity against Staphylococcus aureus ATCC 6538 assessed as reduction in bacterial growth incubated for 24 hrs by serial dilution method; format: functional; details: ATCC 6538, 24 h
[19] = system: Staphylococcus aureus; assay: Ratio of MIC for resistant Staphylococcus aureus ATCC 25923 for 15 days to MIC for Staphylococcus aureus ATCC 25923 for 24 hrs; format: functional
[20] = system: Staphylococcus aureus; assay: Antibacterial activity against Staphylococcus aureus ATCC 25923 assessed as reduction in bacterial growth incubated for 24 hrs by serial dilution method; format: functional; details: ATCC 25923, 24 h, read-out: MIC
[21] = system: Staphylococcus aureus; assay: Antibacterial activity against methicillin-resistant Staphylococcus aureus ATCC 18567 assessed as reduction in bacterial growth incubated for 24 hrs by serial dilution method; format: functional; details: ATCC 18567, 24 h
[22] = system: Staphylococcus aureus; assay: Ratio of MIC for resistant Staphylococcus aureus ATCC 29213 for 15 days to MIC for Staphylococcus aureus ATCC 29213 for 24 hrs; format: functional
[23] = system: Staphylococcus aureus; assay: Antibacterial activity against methicillin-resistant Staphylococcus aureus ATCC 19423 assessed as reduction in bacterial growth incubated for 24 hrs by serial dilution method; format: functional; details: ATCC 19423, 24 h
[24] = system: Staphylococcus aureus; assay: Antibacterial activity against methicillin-resistant Staphylococcus aureus ATCC 19916 assessed as reduction in bacterial growth incubated for 24 hrs by serial dilution method; format: functional; details: ATCC 19916, 24 h
[25] = system: Staphylococcus aureus; assay: Antibacterial activity against methicillin-resistant Staphylococcus aureus ATCC 18466 assessed as reduction in bacterial growth incubated for 24 hrs by serial dilution method; format: functional; details: ATCC 18466, 24 h
[26] = system: Streptococcus sanguinis; assay: Antibacterial activity against Streptococcus sanguinis ATCC 10556 assessed as reduction in bacterial growth incubated for 24 hrs by serial dilution method; format: functional; details: ATCC 10556, 24 h
[27] = system: Streptococcus mutans; assay: Antibacterial activity against Streptococcus mutans UA159 assessed as reduction in bacterial growth incubated for 24 hrs by serial dilution method; format: functional; details: UA159, 24 h
[28] = Cytotoxicity against human HEK293T cells assessed as cell viability at 5 to 640 ug/ml incubated for 48 hrs by MTT assay relative to control; format: cell-based, HEK-293T; details: read-out: Activity
[29] = Hemolytic activity in mouse Erythrocyte at 640 ug/ml incubated for 1 hr relative to control; format: ADME, cell-based; details: mouse erythrocytes, read-out: %max
[30] = system: Erythrocyte; assay: Hemolytic activity in mouse Erythrocyte assessed as HC10 incubated for 1 hr; format: ADME, cell-based
[31] = Hemolytic activity in mouse Erythrocyte assessed as HC50 incubated for 1 hr; format: ADME, cell-based; details: mouse erythrocytes
[32] = Cytotoxicity against human HEK293T cells assessed as cell viability at 640 ug/ml incubated for 48 hrs by MTT assay relative to control; format: cell-based, HEK-293T; details: read-out: Activity

## Clc1ccc(COC(Cn2ccnc2)c2ccc(Cl)cc2Cl)cc1 (stereo not drawn) [ECONAZOLE]
[1]; read-out: MIC
  MIC: 4 µg/mL (≈ 10.5 µM)

## COc1cccc(OC)c1C(=O)N[C@@H]1C(=O)N2[C@@H]1SC(C)(C)[C@@H]2C(=O)O [METHICILLIN]
[2]
  MIC: > 1200 µg/mL
[3]
  MIC: > 1200 µg/mL
[4]
  MIC: 1 µg/mL (≈ 2.63 µM)
[5]
  MIC: > 1200 µg/mL
[6]
  MIC: > 1200 µg/mL
[7]
  MIC: > 1200 µg/mL
[8]
  MIC: > 1200 µg/mL
[9]
  fold change (FC): 8 - 16
[10]
  MIC: > 1200 µg/mL
[11]
  MIC: > 1200 µg/mL
[12]
  MIC: > 1200 µg/mL
[13]
  fold change (FC): 8 - 16
[14]
  MIC: > 1200 µg/mL
[15]
  MIC: > 1200 µg/mL
[16]
  MIC: 1 µg/mL (≈ 2.63 µM)
[17]
  MIC: > 1200 µg/mL
[18]
  MIC: 1 µg/mL (≈ 2.63 µM)
[19]
  Ratio: 8 - 16
[20]
  MIC: 1 µg/mL (≈ 2.63 µM)
[21]
  MIC: > 1200 µg/mL
[22]
  Ratio: 8 - 16
[23]
  MIC: > 1200 µg/mL
[24]
  MIC: > 1200 µg/mL
[25]; read-out: MIC
  MIC: > 1200 µg/mL

## Cc1onc(-c2ccccc2)c1C(=O)N[C@@H]1C(=O)N2[C@@H]1SC(C)(C)[C@@H]2C(=O)O [OXACILLIN]
[2]
  MIC: > 1200 µg/mL
[3]
  MIC: > 1200 µg/mL
[4]
  MIC: 0.5 µg/mL (≈ 1.25 µM)
[5]
  MIC: > 1200 µg/mL
[6]
  MIC: > 1200 µg/mL
[7]
  MIC: > 1200 µg/mL
[8]
  MIC: > 1200 µg/mL
[9]
  fold change (FC): 8
[10]
  MIC: > 1200 µg/mL
[11]
  MIC: > 1200 µg/mL
[12]
  MIC: > 1200 µg/mL
[13]
  fold change (FC): 8
[14]
  MIC: > 1200 µg/mL
[15]
  MIC: > 1200 µg/mL
[16]
  MIC: 1 µg/mL (≈ 2.49 µM)
[17]
  MIC: > 1200 µg/mL
[18]
  MIC: 0.5 µg/mL (≈ 1.25 µM)
[19]
  Ratio: 8
[20]
  MIC: 0.5 µg/mL (≈ 1.25 µM)
[21]
  MIC: > 1200 µg/mL
[22]
  Ratio: 8
[23]
  MIC: > 1200 µg/mL
[24]
  MIC: > 1200 µg/mL
[25]; read-out: MIC
  MIC: > 1200 µg/mL

## CN[C@H](CC(C)C)C(=O)N[C@H]1C(=O)N[C@@H](CC(N)=O)C(=O)N[C@H]2C(=O)N[C@H]3C(=O)N[C@H](C(=O)N[C@H](C(=O)O)c4cc(O)cc(O)c4-c4cc3ccc4O)[C@H](O)c3ccc(c(Cl)c3)Oc3cc2cc(c3O[C@@H]2O[C@H](CO)[C@@H](O)[C@H](O)[C@H]2O[C@H]2C[C@](C)(N)[C@H](O)[C@H](C)O2)Oc2ccc(cc2Cl)[C@H]1O [VANCOMYCIN]
[26]; read-out: MIC
  MIC: 1 µg/mL (≈ 0.69 µM)
[27]; read-out: MIC
  MIC: 2 µg/mL (≈ 1.38 µM)

## H-LYKRYILRKFKFLKKKLKKK-NH2
[1]
  MIC: > 64 µg/mL
[28]
  viability at 48 h: 70 to 80%
[29]
  hemolysis at 1 h, 640 ug/ml: 9.34%
[26]
  MIC: > 64 µg/mL
[20]
  MIC: < 64 µg/mL
[27]
  MIC: > 64 µg/mL
[30]
  HC10: > 640 µg/mL
[31]
  HC50 at 1 h: > 640 µg/mL
[25]; read-out: MIC
  MIC: 64 µg/mL

## H-SYEIKINRHFKTLKKNLKKK-NH2
[1]
  MIC: > 64 µg/mL
[28]
  viability at 48 h: 70 to 80%
[29]
  hemolysis at 1 h, 640 ug/ml: 6.78%
[26]
  MIC: > 64 µg/mL
[20]
  MIC: < 64 µg/mL
[27]; read-out: MIC
  MIC: < 64 µg/mL
[30]
  HC10: > 640 µg/mL
[31]
  HC50 at 1 h: > 640 µg/mL
[25]
  MIC: > 64 µg/mL

## H-VWKRWVVRKWKWVKKKVKKK-NH2
[32]
  viability at 48 h, 640 ug/ml: 58.9%
[1]; read-out: MIC
  MIC: 64 µg/mL
[29]
  hemolysis at 1 h, 640 ug/ml: 31%
[26]
  MIC: > 64 µg/mL
[20]
  MIC: < 64 µg/mL
[27]; read-out: MIC
  MIC: < 64 µg/mL
[30]
  HC10: 57.24 µg/mL
[31]
  HC50 at 1 h: > 640 µg/mL
[25]; read-out: MIC
  MIC: < 64 µg/mL

Reference: ChEMBL document CHEMBL4311960, “Two optimized antimicrobial peptides with therapeutic potential for clinical antibiotic-resistant Staphylococcus aureus” (Eur J Med Chem, 2019)
